Test results from patent US11654138B2, “Therapeutic agents for treating and preventing autoimmune diseases and cancer and a screening method” (KING FAISAL UNIVERSITY, priority 2019, dated 2023).

Target: T1, Arid5a (Mus musculus, UniProt Q3U108)
T1 construct: Flag; expressed in transfected cells; host or cells: HEK293T
T1 sequence (Q3U108 1-590): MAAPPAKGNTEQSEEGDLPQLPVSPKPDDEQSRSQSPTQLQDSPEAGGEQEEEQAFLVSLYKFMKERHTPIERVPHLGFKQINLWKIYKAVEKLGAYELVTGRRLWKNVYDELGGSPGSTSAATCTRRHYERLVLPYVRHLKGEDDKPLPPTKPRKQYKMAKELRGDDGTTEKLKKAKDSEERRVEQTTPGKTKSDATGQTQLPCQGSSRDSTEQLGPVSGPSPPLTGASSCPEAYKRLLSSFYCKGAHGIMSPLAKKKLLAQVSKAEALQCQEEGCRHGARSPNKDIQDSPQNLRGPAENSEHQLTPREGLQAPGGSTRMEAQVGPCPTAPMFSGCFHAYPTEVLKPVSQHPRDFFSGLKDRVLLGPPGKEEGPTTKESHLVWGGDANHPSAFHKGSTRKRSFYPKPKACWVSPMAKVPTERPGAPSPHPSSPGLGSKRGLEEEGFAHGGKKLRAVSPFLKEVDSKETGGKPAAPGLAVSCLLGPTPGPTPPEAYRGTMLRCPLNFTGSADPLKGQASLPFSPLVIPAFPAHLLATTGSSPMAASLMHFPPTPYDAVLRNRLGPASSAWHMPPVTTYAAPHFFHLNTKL
Assay: Luciferase assay of Arid5a stabilizing function on 3′UTR of target mRNAs in HEK293T cells
Type: cell-based
Protocol: Briefly, HEK293T cells were transfected with luciferase pGL-3 and empty pcDNA3.1 plasmids (Control), or pGL-3 plasmid encoding the 3′UTR of OX40, Il6 or Stat3, together with Arid5a-expressing pcDNA3.1 plasmid. The cells were treated with DMSO (Control and Arid5a) or POE (10-60 μM) dissolved in DMSO. The mouse Arid5a (NP_001165676.1) cDNA (WT; ENSMUST00000115032.7) was cloned in a Flag-tagged pcDNA3.1 plasmid at Xba1 and Ecor1. Renilla-expressing plasmid was used as a control. Luciferase activity from cell lysates is shown relative to Control in FIGS. 1A-1C.
HEK293 T cells (ATCC) were transfected (Lipofectamine LTX; Invitrogen) with luciferase pGL-3 and empty peDNA 3.1 plasmids (Control), or pGL-3 plasmid encoding the 3′UTR of IL6 together with Arid5a-expressing pcDNA3.1 plasmid. Renila-expressing plasmid was used as a Control. The cells were treated with DMSO (Control and Arid5a) or POE or its analogs A1-3 (40 μM; Aurora) dissolved in DMSO. The mouse Arid5a (NP_001165676.1) cDNA (WT; ENSMUST00000115032.7) was cloned in a Flag-tagged pcDNA3.1 plasmid at Xba1 and EcoR1.
To examine whether the Arid5a inhibitors interact with the target domain of Arid5a (Pocket X), substitution mutations were introduced to the wild-type (WT) Arid5a at Phe56, Tyr137 and His140 to produce mutant Arid5a (mArid5a). Mutations were introduced to substitute Phe56 with Cys, Tyr137 with Ala, and His140 with Ala. Luciferase activity from cell lysates was quantified using a Dual Luciferase kit (Promega) and the results were shown relative to the Control.

## O=C(CSc1nnc(-c2ccncc2)o1)c1ccccc1 [POE, 1-Phenyl-2-(5-pyridin-4-yl-[1,3,4]oxadiazol-2-ylsulfanyl)-ethanone]
40 μM, HEK293 T cells, WT Arid5a, FIG. 6
  Arid5a stabilizing function on Il6 3′UTR (luciferase activity relative to Control): abolished the stabilizing function of Arid5a
POE 10-60 μM, HEK293T cells, FIG. 1A
  Arid5a stabilizing function on the OX40 3′UTR (luciferase activity relative to Control): inhibits Arid5a stabilizing function
POE 10-60 μM, HEK293T cells, FIG. 1B
  Arid5a stabilizing function on the Il6 3′UTR (luciferase activity relative to Control): inhibits Arid5a stabilizing function
POE 10-60 μM, HEK293T cells, FIG. 1C
  Arid5a stabilizing function on the Stat3 3′UTR (luciferase activity relative to Control): inhibits Arid5a stabilizing function
